Experimental findings from PubChem BioAssay AID652241 (Broad Institute, 2013) are described below.

Results filed as inconclusive are left out. Activity calls are given as the source filed them.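 The calls were made as follows: active = fitted curve reaches activity 50 in the expected rising direction at or below the top valid tested dose; inconclusive = no clear call, values can overlap the other calls; inactive = activity in the wrong direction, and the rest.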

As a reminder, the AC50 is the concentration at which the activity in the assay is half-maximal.

For this assay, the target named is Virion infectivity factor (Human immunodeficiency virus type 1 group M subtype B (isolate BH10)) + Virion infectivity factor (Human immunodeficiency virus type 1 group M subtype B (isolate BRU/LAI)) + Virion infectivity factor (Human immunodeficiency virus type 1 group M subtype B (isolate PCV12)) + Virion infectivity factor (Human immunodeficiency virus type 1 group M subtype B (isolate HXB2)) (UniProt P69720+P69721+P69722+P69723). Put plainly: Vif multimerization inhibitor potency, dose response, imaging, HEK293T, cherry-picks (AID 652241).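 Also: imaged cell signal that rises when Vif self-association is disrupted.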 The note with it: 24 h.
Virion infectivity factor (Human immunodeficiency virus type 1 group M subtype B (isolate BH10)) + Virion infectivity factor (Human immunodeficiency virus type 1 group M subtype B (isolate BRU/LAI)) + Virion infectivity factor (Human immunodeficiency virus type 1 group M subtype B (isolate PCV12)) + Virion infectivity factor (Human immunodeficiency virus type 1 group M subtype B (isolate HXB2)), sequence (P69720 whole entry, looked up): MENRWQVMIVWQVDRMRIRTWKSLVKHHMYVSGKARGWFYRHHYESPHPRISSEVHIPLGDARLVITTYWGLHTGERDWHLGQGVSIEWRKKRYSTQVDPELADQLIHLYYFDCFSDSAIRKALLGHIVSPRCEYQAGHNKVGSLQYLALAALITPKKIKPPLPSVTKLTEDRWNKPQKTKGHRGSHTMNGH
Virion infectivity factor (Human immunodeficiency virus type 1 group M subtype B (isolate BH10)) + Virion infectivity factor (Human immunodeficiency virus type 1 group M subtype B (isolate BRU/LAI)) + Virion infectivity factor (Human immunodeficiency virus type 1 group M subtype B (isolate PCV12)) + Virion infectivity factor (Human immunodeficiency virus type 1 group M subtype B (isolate HXB2)), sequence (P69721 whole entry, looked up): as the sequence (P69720 whole entry, looked up) above
Virion infectivity factor (Human immunodeficiency virus type 1 group M subtype B (isolate BH10)) + Virion infectivity factor (Human immunodeficiency virus type 1 group M subtype B (isolate BRU/LAI)) + Virion infectivity factor (Human immunodeficiency virus type 1 group M subtype B (isolate PCV12)) + Virion infectivity factor (Human immunodeficiency virus type 1 group M subtype B (isolate HXB2)), sequence (P69722 whole entry, looked up): as the sequence (P69720 whole entry, looked up) above
Virion infectivity factor (Human immunodeficiency virus type 1 group M subtype B (isolate BH10)) + Virion infectivity factor (Human immunodeficiency virus type 1 group M subtype B (isolate BRU/LAI)) + Virion infectivity factor (Human immunodeficiency virus type 1 group M subtype B (isolate PCV12)) + Virion infectivity factor (Human immunodeficiency virus type 1 group M subtype B (isolate HXB2)), sequence (P69723 whole entry, looked up): as the sequence (P69720 whole entry, looked up) above

As to `CN(C)c1ccc(/C=C/C(=O)c2ccc3c(c2)OCO3)cc1`, where the note is “at 19.5 µM (top of the series)”, the “activity, higher = inhibition” value is “inactive”. As to `N#Cc1c(-c2ccccc2)cc(C2CC2)nc1SCC(=O)c1cccs1`, the “activity, higher = inhibition” value (at 19.5 µM (top of the series)) is “inactive”.

Regarding `CCN1C(=O)c2cccc3c(S(=O)(=O)Nc4ccccc4O)ccc1c23`, the “activity, higher = inhibition” value (at 19.5 µM (top of the series)) is “inactive”. Regarding `CCOC(=O)C[C@@H](C#N)NC(=O)[C@@H]1CCCN1C(=O)[C@@H](NC(=O)c1ccc(N)c(Cl)c1)C(C)(C)C`, the “activity, higher = inhibition” value (at 19.5 µM (top of the series)) was “inactive”.

As for `Cc1ccc(NC(=O)/C=C/c2ccco2)nc1`, the AC50 was 8.31 µM. As for `COc1ccccc1CNC(=O)CSC1=NCCS1`, the “activity, higher = inhibition” value (at 19.5 µM (top of the series)) was “inactive”. For the molecule `O=C(NCc1ccccn1)c1ccc(Cn2c(=S)[nH]c3ccc(Br)cc3c2=O)cc1`, where the note is “at 19.5 µM (top of the series)”, the “activity, higher = inhibition” value is “inactive”. Still for that read-out and setting: with `COc1ccc(-c2nnc(SCC(=O)N3CCCc4ccccc43)o2)cc1OC` the entry was “inactive”; with `CC(C(=O)O)c1ccc(N2Cc3ccccc3C2=O)cc1` (stereo not drawn), “inactive”.

As for `O=C(CSc1ncccn1)NC(=O)Nc1ccc2c(c1)OCCO2`, the “activity, higher = inhibition” value (at 19.5 µM (top of the series)) was “inactive”. On the same count and under the same terms, next, `COc1ccc(-c2coc3c(C(=O)Nc4cccc(C(C)=O)c4)cccc23)c(C)c1`: “inactive”. For `CC(=O)Nc1ccc(-c2ccnc3c2CC(C(=O)NCc2ccccc2)O3)cc1` (stereo not drawn), the AC50 is 1.28 µM. Take `COc1cc2[nH]c(=O)n(CCCC(=O)NC3CCCCC3)c(=O)c2cc1OC`: the “activity, higher = inhibition” value (at 19.5 µM (top of the series)) is “inactive”.

In the case of `O=C(O)/C=C/C(=O)Nc1cccc(C(F)(F)F)c1`, the “activity, higher = inhibition” value (at 19.5 µM (top of the series)) is “inactive”. As to `N#Cc1cc2c(=O)n3ccccc3nc2n(-c2ccccc2Cl)c1=O`, the “activity, higher = inhibition” value (at 6.8 µM (top of the series)) was “inactive”. On to `COc1ccc(CN(C(=O)Cn2nnc(-c3ccc(C)o3)n2)C(C(=O)NCC2CCCO2)c2ccco2)cc1` (stereo not drawn), for which, for the setting “at 19.5 µM (top of the series)”, the “activity, higher = inhibition” value was “inactive”.

For `COc1cc(OC)cc(C(=O)N[C@H](C(=O)Nc2ccc3c(c2)OCO3)C(C)C)c1`, the “activity, higher = inhibition” value (at 19.5 µM (top of the series)) was “inactive”. On the same count and under the same terms, next, `O=c1[nH]c(=O)n(Cc2ccco2)c2c1C(C(F)(F)F)(C(F)(F)F)N=C(c1ccco1)N2`: “inactive”; `COCc1cc(C)nc(SCC(=O)Nc2cccc3cccnc23)c1C#N`: “inactive”. Consider `CCOC(=O)N1CCN(c2c(NCc3ccc(Cl)cc3)c(=O)c2=O)CC1`, for which the AC50 was > 19.5 µM (inactive). Consider `COc1ccc(NC(=O)Cn2nnc(C(=O)Nc3ccccc3C)c2N)cc1`, for which the “activity, higher = inhibition” value (at 19.5 µM (top of the series)) is “inactive”. On to `CCOC(=O)C1=C(C)NC(=O)NC1`, for which the “activity, higher = inhibition” value (at 19.5 µM (top of the series)) is “inactive”. On to `COC(=O)N1C(=O)[C@](c2ccc(Cl)cc2)(C(C)C)N1C(=O)OC`, for which the “activity, higher = inhibition” value (at 19.5 µM (top of the series)) was “inactive”. The same measure, in the same setting: with `CCOC(=O)C1CCCN(CC(=O)Nc2c(C(=O)OC)[nH]c3ccc(Cl)cc23)C1` (stereo not drawn) the entry was “inactive”.

Regarding `Cc1nc(-c2ccc(O)c(O)c2)cs1`, the AC50 was > 19.5 µM (inactive). In the case of `CCCN1C(=O)/C(=C\C=C2\N(CC)c3ccccc3C2(C)C)SC1=S`, the “activity, higher = inhibition” value (at 6.8 µM (top of the series)) was “inactive”. Regarding `COc1ccc(C(=O)Nc2c(Cl)cc(Cl)cc2C(=O)N2CCOCC2)cc1`, the “activity, higher = inhibition” value (at 19.5 µM (top of the series)) was “inactive”.

On to `O=C(NCc1ccccc1C(F)(F)F)c1cccc2c1C(=O)c1ccc(N3CCCCC3)cc1S2(=O)=O`, for which the AC50 was 14.1 µM. For the molecule `Cc1cccc(C)c1NC(=O)COc1ccc2c(C)c(Cc3ccccc3)c(=O)oc2c1C`, the “activity, higher = inhibition” value (at 19.5 µM (top of the series)) was “inactive”. On to `COc1cc(OC)cc(C(=O)NC(C(=O)Nc2ccc3c(c2)OCO3)C(C)C)c1` (stereo not drawn), for which the “activity, higher = inhibition” value (at 19.5 µM (top of the series)) was “inactive”. For `COc1cc(-c2cnc3c(NC=O)cc(-c4ccccc4Cl)cn23)cc(OC)c1OC`, the half-maximal activity concentration (AC50) is 3.03 µM. In the case of `O=C(CCCOc1ccc(Br)cc1)NNC(=O)c1ccncc1`, the “activity, higher = inhibition” value (at 19.5 µM (top of the series)) is “inactive”. For the molecule `Cc1ccc(NC(=O)Cn2ncn3c(cc4ccccc43)c2=O)c(C)c1`, under “at 19.5 µM (top of the series)”, the “activity, higher = inhibition” value was “inactive”. On the same count and under the same terms, next, `CCC(C)NC(=O)Cn1c(=O)n(-c2ccccc2)c(=O)c2ccc(C(=O)NCc3ccco3)cc21` (stereo not drawn): “inactive”. The same measure, in the same setting: with `COc1ccc(CCNC(=O)[C@@H](NC(N)=O)C(C)C)cc1` the entry was “inactive”; with `COc1c2ccoc2nc2c(OC)c(OC[C@@H](O)C(C)(C)O)ccc12`, “inactive”. `CCN1C(=O)c2cccc3c(S(=O)(=O)Nc4nc(C)cs4)ccc1c23`: the AC50 is 15.1 µM. Take `COC(=O)c1ccc(NCc2cc(O)ccc2O)cc1O`: the AC50 is 10.9 µM.

With `O=C1c2ccccc2C(Nc2ccc(S(=O)(=O)N3CCOCC3)cc2)N1c1ccccn1` (stereo not drawn), the “activity, higher = inhibition” value (at 19.5 µM (top of the series)) is “inactive”.

Turning to `O=C(CCCCCn1c(=S)[nH]c2ccc(N3CCOCC3)cc2c1=O)NCc1ccccc1Cl`, the half-maximal activity concentration (AC50) was 6.23 µM.

Take `O=C(Nc1ccc2c(c1)nc1n2CCOC1)c1ccccc1`: the “activity, higher = inhibition” value (at 19.5 µM (top of the series)) is “inactive”. `CCCOc1ccc(C(O)(CCC)CCN2CCCCC2)cc1` (stereo not drawn): the “activity, higher = inhibition” value (at 19.5 µM (top of the series)) was “inactive”. As for `CC(C)OC(=O)c1ccc(NCc2cc(O)ccc2O)cc1Cl`, the AC50 was 5 µM.

Take `CCC(=O)Nc1ccc(-c2cc3ccccc3oc2=O)cc1`: the “activity, higher = inhibition” value (at 19.5 µM (top of the series)) was “inactive”.

Consider `COc1cc(/C=C/C(=O)O)ccc1S(=O)(=O)N1CCCc2ccccc21`, for which the “activity, higher = inhibition” value (at 19.5 µM (top of the series)) was “inactive”.

`Cc1nn(C)cc1CN(C)Cc1ccc(OCC(O)CN2CCCCC2)cc1` (stereo not drawn): for the setting “at 19.5 µM (top of the series)”, the “activity, higher = inhibition” value was “inactive”. In the case of `O=c1sc(N2CCN(c3ccc(F)cc3)CC2)nc2ccsc12`, under “at 19.5 µM (top of the series)”, the “activity, higher = inhibition” value was “inactive”. With `Cc1cnc(NC(=O)CN2CCN(c3ccccn3)CC2)s1`, the half-maximal activity concentration (AC50) is 9.23 µM. `COc1cc(C(=O)NCCc2cn3ccc(C)cc3n2)cc(OC)c1OC`: for the setting “at 19.5 µM (top of the series)”, the “activity, higher = inhibition” value was “inactive”.

As to `CNC(=O)COc1ccccc1C(=O)Nc1ccc2c(c1)oc1ccccc12`, where the note is “at 19.5 µM (top of the series)”, the “activity, higher = inhibition” value was “inactive”.

In the case of `C=CCN1C(=O)/C(=C/c2ccc(-c3ccc(F)cc3)o2)SC1=S`, under “at 19.5 µM (top of the series)”, the “activity, higher = inhibition” value is “inactive”.

With `OC(CNCc1ccccc1Cl)COc1ccc(F)cc1` (stereo not drawn), the “activity, higher = inhibition” value (at 19.5 µM (top of the series)) was “inactive”. As to `COc1ccc(NC(=O)c2ccccc2NC(=O)CSc2ccc(C)cc2)cc1`, the “activity, higher = inhibition” value (at 19.5 µM (top of the series)) was “inactive”. Regarding `CCOc1ccc2c(C)c(C(=O)O)oc2c1OCC`, the “activity, higher = inhibition” value (at 19.5 µM (top of the series)) is “inactive”. As for `Cc1cccc2cc(CN(CC3CCCO3)C(=O)NC3CCCCC3)c(=O)[nH]c12` (stereo not drawn), where the note is “at 19.5 µM (top of the series)”, the “activity, higher = inhibition” value was “inactive”. Same read-out and setting: with `Cc1cc(N2CCN(S(=O)(=O)c3ccc(Cl)c(Cl)c3)CC2)c2ccccc2n1` the entry was “inactive”; with `COc1ccccc1Nc1nnc(C)c(=O)[nH]1`, “inactive”. As to `O=C(CCCSc1nc2ccccc2c(=O)[nH]1)c1ccccc1`, the “activity, higher = inhibition” value (at 19.5 µM (top of the series)) was “inactive”.

Regarding `CN(C)c1ccc(C(O)Cc2nc3ccccc3n2C)cc1` (stereo not drawn), the “activity, higher = inhibition” value (at 19.5 µM (top of the series)) was “inactive”. Turning to `CCCSc1ccc2nc(NC(=O)OC)[nH]c2c1`, the AC50 is 15.4 µM. Consider `O=C(COc1ccc(-n2cnnn2)cc1)Nc1cc(Cl)cc(Cl)c1`, for which the half-maximal activity concentration (AC50) was 12.1 µM.

Consider `CC(C)c1ccc(NC(=O)N2CCCC2C(=O)Nc2ccc(-n3cnnn3)cc2)cc1` (stereo not drawn), for which, under “at 19.5 µM (top of the series)”, the “activity, higher = inhibition” value was “inactive”. Regarding `O=C(CCCCn1ccc(=O)[nH]c1=O)Nc1ccc(O)c(C(=O)O)c1`, the “activity, higher = inhibition” value (at 19.5 µM (top of the series)) is “inactive”.
